Where two headings read alike, the source gives them in different places.

The target of data set [1] is T1, CB1 cannabinoid receptor (Rattus norvegicus, UniProt P20272).
T1 construct: membranes were prepared from rat forebrain membranes; from tissue; host or cells: rat forebrain
As to the kind of experiment: CB1 receptor binding assay, [3H] CP-55,940 displacement, rat forebrain membranes. How it is done: Some inventive analogs were tested for CB2 receptor binding affinity and for CB1 receptor affinity (to determine selectivity). As used herein, “binding affinity” is represented by the IC50 value which is the concentration of an analog required to occupy the 50% of the total number (Bmax) of the receptors. The lower the IC50 value the higher the binding affinity. […] For the CB1 receptor binding studies, membranes were prepared from rat forebrain membranes according to the procedure of P. R. Dodd et al, A Rapid Method for Preparing Synaptosomes: Comparison with Alternative Procedures, Brain Res., 107-118 (1981). The binding of the novel analogues to the CB1 cannabinoid receptor was assessed as described in W. A. Devane et al, Determination and Characterization of a Cannabinoid Receptor in a Rat Brain, Mol. Pharmacol., 34, 605-613 (1988) and A. Charalambous et al, 5′-azido Δ^8- THC: A Novel Photoaffinity Label for the Cannabinoid Receptor, J. Med. Chem., 35, 3076-3079 (1992) with the following changes. The above articles are incorporated by reference herein.
Membranes, previously frozen at −80° C., were thawed on ice. To the stirred suspension was added three volumes of TME (25 mM Tris-HCl buffer, 5 mM MgCl2 and 1 mM EDTA) at a pH 7.4. The suspension was incubated at 4° C. for 30 min. At the end of the incubation, the membranes were pelleted and washed three times with TME.
The treated membranes were subsequently used in the binding assay described below. Approximately 30 μg of membranes were incubated in silanized 96-well microtiter plate with TME containing 0.1% essentially fatty acid-free bovine serum albumin (BSA), 0.8 nM [^3H] CP-55,940, and various concentrations of test materials in a final volume of 200 μL. The assays were incubated for 1 hour at 30° C. and then immediately filtered using Packard Filtermate 196 harvester and Whatman GF/C filterplates and washed with wash buffer (TME) containing 0.5% BSA. Radioactivity was detected using MicroScint 20 scintillation cocktail added directly to the dried filterplates, and the filterplates were counted using a Packard Instruments Top-Count. Nonspecific binding was assessed using 100 nM CP-55,940. Data collected from three independent experiments performed with duplicate determinations was normalized between 100% and 0% specific binding for [^3H] CP-55,940, determined using buffer and 100 nM CP-55,940. The normalized data was analyzed using a 4-parameter nonlinear logistic equation to yield IC50 values. Data from at least two independent experiments performed in duplicate was used to calculate IC50 values which were converted to Ki values using the assumptions of Cheng et al, Relationship Between the Inhibition Constant (Ki) and the concentration of Inhibitor which causes 50% Inhibition (IC50) of an Enzymatic Reaction, Biochem. Pharmacol., 22, 3099-3102, (1973), which is incorporated by reference herein.

Data set [2] addresses T2, CB2 receptor (Mus musculus, UniProt P47936).
T2 construct: membranes were prepared from frozen mouse spleen; from tissue; host or cells: mouse spleen
As to the kind of experiment: CB2 receptor binding assay, [3H] CP-55,940 displacement, mouse spleen membranes.

The mark [3] stands for this setting: Table 1, bicyclic-cannabinoid analogs, rat forebrain membranes, 0.8 nM [3H] CP-55,940, read-out: Ki in nM for the CB1 Receptor.

T1 sequence (P20272 whole entry): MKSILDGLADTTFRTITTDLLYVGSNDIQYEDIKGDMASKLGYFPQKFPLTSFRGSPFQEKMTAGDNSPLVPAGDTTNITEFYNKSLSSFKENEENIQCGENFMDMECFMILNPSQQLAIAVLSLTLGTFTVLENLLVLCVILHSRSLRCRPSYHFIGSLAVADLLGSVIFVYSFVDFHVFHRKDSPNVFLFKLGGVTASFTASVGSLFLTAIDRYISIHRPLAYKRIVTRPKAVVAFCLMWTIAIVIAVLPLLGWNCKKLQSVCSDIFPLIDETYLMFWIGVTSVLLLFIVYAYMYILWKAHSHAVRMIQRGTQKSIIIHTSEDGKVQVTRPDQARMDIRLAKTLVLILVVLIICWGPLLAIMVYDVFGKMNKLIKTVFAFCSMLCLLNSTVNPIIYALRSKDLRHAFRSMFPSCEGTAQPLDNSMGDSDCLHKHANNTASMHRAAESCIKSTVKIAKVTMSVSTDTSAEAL
T2 sequence (P47936 whole entry): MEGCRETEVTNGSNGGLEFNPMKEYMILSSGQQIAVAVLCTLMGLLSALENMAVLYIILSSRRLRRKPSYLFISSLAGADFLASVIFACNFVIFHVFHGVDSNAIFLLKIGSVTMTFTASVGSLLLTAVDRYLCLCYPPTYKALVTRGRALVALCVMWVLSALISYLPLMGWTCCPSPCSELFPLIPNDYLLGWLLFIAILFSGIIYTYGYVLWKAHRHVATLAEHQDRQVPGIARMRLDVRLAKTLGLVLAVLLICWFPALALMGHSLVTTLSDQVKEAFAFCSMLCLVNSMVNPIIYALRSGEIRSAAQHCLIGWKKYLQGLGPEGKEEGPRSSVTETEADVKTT

Regarding `C#CCCCCC(C)(C)c1cc(O)c2c(c1)OC(C)(C)[C@@H]1CCC(=O)C[C@@H]21` [Compound 4e, (−)-trans-3-(1′,1′-dimethylhept-6′-ynyl)-6,6a,7,8,10,10a-hexahydro-1-hydroxy-6,6-dimethyl-9H-dibenzo[b,d]pyran-9-one], the inhibitory constant (Ki) in data set [1] came to 10.7 nM; in data set [2] it was 4.1 nM.
Take `CCCCCCC1(c2cc(O)c3c(c2)OC(C)(C)[C@@H]2CC[C@@H](O)C[C@@H]32)SCCS1` [Compound 5, 6a,7,8,9,10,10a-Hexahydro-3-(2-hexyl-1,3-dithiolan-2-yl)-6,6-dimethyl-6H-dibenzo[b,d]pyran-1,9β-diol]: the Ki in data set [2] worked out at 13.9 nM.
Turning to `CC(C)(CCCCCCBr)c1cc(O)c([C@@H]2CC(=O)[C@@H]3C[C@H]2C3(C)C)c(O)c1` [Compound 2d, (4R)4-[4-(7′-bromo-1′,1′-dimethylheptyl)-2,6-dihydroxyphenyl]-6,6-dimethyl-2-norpinanone], the Ki in data set [1] was found to be 10.6 nM; in data set [2] it was 9.3 nM.
For `CCCCCCC1(c2cc(O)c3c(c2)OC(C)(C)[C@@H]2CCC(=O)C[C@@H]32)SCCS1` (single isomer, unassigned) [Compound 4c, (−)-trans-3-(2-hexyl-1,3-dithiolan-2-yl)-6,6a,7,8,10,10a-hexahydro-1-hydroxy-6,6-dimethyl-9H-dibenzo[b,d]pyran-9-one], the melting point was 62 to 64 °C (dec.). The affinity in data set [1], expressed as Ki, was 11.7 nM. Besides, the Ki in data set [2] is 2.3 nM.
In the same order, the values of `CCCCCCC1(c2cc(O)c([C@@H]3CC(=O)[C@@H]4C[C@H]3C4(C)C)c(O)c2)CCCC1` [Compound 2a, (4R)-4-[4-(1′,1′-cyclopentylheptyl)-2,6-dihydroxyphenyl]-6,6-dimethyl-2-norpinanone] are 187 to 188 °C, 50.6 nM and 0.4 nM.
In the case of `CCCCCCC1(c2cc(O)c3c(c2)OC(C)(C)[C@@H]2CCC(=O)C[C@@H]32)CCCC1` [Compound 4a, (−)-trans-3-(1′,1′-cyclopentylheptyl)-6,6a,7,8,10,10a-hexahydro-1-hydroxy-6,6-dimethyl-9H-dibenzo[b,d]pyran-9-one], the results for the Ki in data set [1] and in data set [2] were 0.1 nM and 2.6 nM, respectively.
As for `C#CCCCCC(C)(C)c1cc(O)c([C@@H]2CC(=O)[C@@H]3C[C@H]2C3(C)C)c(O)c1` [Compound 2e, (4R)-4-[4-(1′,1′-dimethylhept-6′-ynyl)-2,6-dihydroxyphenyl]-6,6-dimethyl-2-norpinanone], the figures for the Ki in data set [1] and in data set [2] were 30.8 nM and 0.2 nM, respectively.
As for `CC(C)(CCCCCCI)c1cc(O)c2c(c1)OC(C)(C)[C@@H]1CC[C@@H](N=[N+]=[N-])C[C@@H]21` [Compound 8, 1-Hydroxy-3-(7′-iodo-1′,1′-dimethylheptyl)-6,6-dimethyl-9β-azido-6a,7,8,8,10,10a-hexahydro-6H-dibenzo[b,d]pyran], the Ki amounted to 0.8 nM in data set [1] and 0.9 nM in data set [2].
As for `CC(C)(CCCCCCBr)c1cc(O)c2c(c1)OC(C)(C)[C@@H]1CC[C@@H](N=[N+]=[N-])C[C@@H]21` [Compound 7d, 1-Hydroxy-3-(7′-bromo-1′,1′-dimethylheptyl)-6,6-dimethyl-9β-azido-6a,7,8,8,10,10a-hexahydro-6H-dibenzo[b,d]pyran], the Ki in data set [1] amounted to 1.6 nM; in data set [2], 13.7 nM.
Compound `CCCCC=CC1(c2cc(O)c([C@@H]3CC(=O)[C@@H]4C[C@H]3C4(C)C)c(O)c2)CCCC1` [Compound 2b, (4R)4-[4-(1′,1′-cyclopentylhept-2′-enyl)-2,6-dihydroxyphenyl]-6,6-dimethyl-2-norpinanone] yielded a melting point of 167 to 168 °C. Besides, the Ki in data set [1] was found to be 74.5 nM. In data set [2], this compound had a Ki of 0.4 nM.
Consider `CC(C)(CCCCCCBr)c1cc(O)c2c(c1)OC(C)(C)[C@@H]1CCC(=O)C[C@@H]21` (relative stereo) [Compound 4d, (−)-trans-3-(7′-bromo-1′,1′-dimethylheptyl)-6,6a,7,8,10,10a-hexahydro-1-hydroxy-6,6-dimethyl-9H-dibenzo[b,d]pyran-9-one], for which the results for the Ki in data set [1] and in data set [2] were 1 nM and 11.8 nM, respectively.
In the case of `CCCCCCC1(c2cc(O)c([C@@H]3CC(=O)C4CC3C4(C)C)c(O)c2)SCCS1` (stereo partly drawn) [Compound 2c, (4R)-4-[4-(2-hexyl-1,3-dithiolan-2-yl)-2,6-dihydroxyphenyl]-6,6-dimethyl-2-norpinanone], the melting point was 160 to 161 °C (dec.). Further, in data set [1] (setting [3]), the Ki is 224 nM. Besides, the affinity in data set [2] corresponds to a Ki of 10.9 nM.
With `CC(C)(CCCCC=CI)c1cc(O)c2c(c1)OC(C)(C)[C@@H]1CC[C@@H](N=[N+]=[N-])C[C@@H]21` [Compound 9, 1-Hydroxy-3-(7′-iodo-1′,1′-dimethylhept-6′-enyl)-6,6-dimethyl-9β-azido-6a,7,8,8,10,10a-hexahydro-6H-dibenzo[b,d]pyran], the Ki in data set [1] and in data set [2] was 0.7 nM in each case.
As for `C#CCCCCC(C)(C)c1cc(O)c2c(c1)OC(C)(C)[C@@H]1CC[C@H](O)C[C@@H]21` [Compound 6e, 6a,7,8,9,10,10a-Hexahydro-3-(1′,1′-dimethylhept-6′-ynyl)-6,6-dimethyl-6H-dibenzo[b,d]pyran-1,9α-diol], the inhibition constant Ki came to 11.3 nM in data set [1] (Table 2, hexahydrocannabinol analogs, rat forebrain membranes, 0.8 nM [3H] CP-55,940, read-out: Ki in nM for the CB1 Receptor) and 12 nM in data set [2].
Regarding `CCCCCCC1(c2cc(O)c([C@@H]3CC(O)[C@@H]4C[C@H]3C4(C)C)c(O)c2)SCCS1` (stereo partly drawn) [Compound 3, (4R)4-[4-(2-hexyl-1,3-dithiolan-2-yl)-2,6-dihydroxyphenyl]-6,6-dimethyl-2β-norpinanol and (4R)-4-[4-(2-hexyl-1,3-dithiolan-2-yl)-2,6-dihydroxyphenyl]-6,6-dimethyl-2α-norpinanol], the results for the Ki in data set [1] (setting [3]) and in data set [2] were 133 nM and 76.8 nM, respectively.
Regarding `CCCCC=CC1(c2cc(O)c3c(c2)OC(C)(C)[C@@H]2CCC(=O)C[C@@H]32)CCCC1` [Compound 4b, (−)-trans-3-(1′,1′-cyclopentylhept-2′-enyl)-6,6a,7,8,10,10a-hexahydro-1-hydroxy-6,6-dimethyl-9H-dibenzo[b,d]pyran-9-one], the Ki in data set [1] and in data set [2] was 0.2 nM throughout.
On to `CCCCCCC(C)(C)c1cc(O)c2c(c1)OC(C)(C)[C@@H]1CC[C@@H](N=[N+]=[N-])C[C@@H]21` [Compound 7g, 1-Hydroxy-3-(1′,1′-dimethylheptyl)-6,6-dimethyl-9β-azido-6a,7,8,8,10,10a-hexahydro-6H-dibenzo[b,d]pyran], for which the Ki in data set [1] was 5 nM; in data set [2], 10.2 nM.

A word on the Ki: it is a measure of affinity in units of concentration, obtained from inhibition or displacement. Usually melting point stands for the temperature, or range, at which the solid turns liquid.

The record behind these values is US7285683B2, “Bicyclic and tricyclic cannabinoids” (University of Connecticut, priority 2001, dated 2007).
